From patent publication US20220039907A1, “Inhibiting Post-Biopsy Inflammation and Metastasis” (The Board of Regents of the University of Oklahoma, priority 2020, published 2022)

Experiments:
[1] = test system: Py230mCherry tumor; test: Biopsy-induced lung metastasis in Py230mCherry tumor bearing mice, oral COX2/EP2 inhibitors; format: in vivo; conditions: daily following biopsy, n=15 per group
[2] = test system: bone marrow-derived primary Mϕ; test: PGE2-mediated arginase expression in bone marrow-derived primary Mϕ with EP inhibitors; format: cell-based; conditions: Mϕ incubated with PGE2 and selective EP inhibitor
Description: (§1) To further identify the biological consequences of abundant PGE2, the bone marrow-derived primary Mϕ was incubated with 10 μM PGE2. […] PGE2 exerts its action through 4 integral membranous E prostanoid receptors (EP1, EP2, EP3, and EP4). The Mϕ was incubated with PGE2 and selective pharmacologic inhibitors against respective prostaglandin E2 receptor (EP2).

[3] = test system: VCAM1 expression in End.3; test: PGE2-induced VCAM1 expression in End.3 with selective EP antagonists; format: cell-based, murine; conditions: End.3 cells, PGE2 stimulated
Description: (§2) Inflamed vessels serve as a gateway for MSCs to enter tissue parenchyma. VCAM1 engagement to integrin α4β1 (very late antigen 4; VLA4) mediates shear resistant adhesion of MSCs to the vessel wall that leads to their trans-endothelial migration. […] Similarly, VCAM1 vascular expression was elevated in PGE2 treated mice compared to untreated ones (FIG. 10(B)). Accordingly, shear resistant adhesion of human MSCs was 2-fold higher to PGE2 treated HMVECs than to untreated ones; however, VCAM1 neutralizing antibody abrogated PGE2-induced shear resistant adhesion of MSCs (FIG. 10(C)). […] The white circle in the left panel of FIG. 10(D) indicates infiltrating GFP+ MSCs, and the inset in the upper left corner is a close-up image of the corresponding location. Since VLA4 is the ligand for VCAM1, and conformational change of VLA4 is prerequisite for binding to VCAM1, ligand binding assay using FITC-LDV peptide (which selectively binds to an active form of VLA4) was performed.
PGE2 exerts its action through the binding to 4 types of prostaglandin E receptor (EP1, 2, 3, and 4), which ubiquitously express in various cell types. Human endothelial cells express all 4 types of EP receptors. […] Therefore, without wishing to be bound by theory, an explanation of biopsy-induced metastasis is that systemic availability of PGE2 leads to an elevation of VCAM1 expression in the pulmonary vessels through the EP4 receptor, resulting in increased MSCs tissue infiltration that initiates a provisional PMN in the perivascular space of the lungs (see overview model in FIG. 8).

[4] = test system: 4T1-Luc tumors; test: Organ metastasis-free survival of 4T1-Luc tumor mice with or without biopsy, oral ibuprofen; format: in vivo
Description: To experimentally explore the hypothesis that inhibition of PGE2 biosynthesis by NSAIDs diminishes biopsy-induced metastasis, 4T1-Luc tumors were biopsied or left unbiopsied (n=10 per group) once tumor size reached 100 mm^3. One day later, daily oral ibuprofen (non-selective COX inhibitor) or saline was started (50 mg/kg) for 9 days, until the day before mastectomy. Mice were then monitored for metastasis over the next 3 months. […] In contrast, cellularity and COX2 expression in the biopsy wound were far less in mice that were treated with ibuprofen (FIG. 12(B)).

[5] = test system: PGE2 level in biopsied mouse tumors; test: PGE2 level in biopsied mouse tumors after oral ibuprofen; format: in vivo; conditions: oral administration; to a level equal to the unbiopsied tumor
[6] = test system: primary mouse MSCs; test: Biopsy-WF induced PGE2 release from primary mouse MSCs; format: cell-based; conditions: primary mouse MSCs treated with biopsy-WF
[7] = test system: lung; test: Adoptive transfer of GFP+ MSCs into PGE2 pre-treated mice; format: in vivo
Description: as §2

[8] = test system: VCAM1 vascular expression; test: VCAM1 vascular expression in PGE2 treated mice; format: in vivo; conditions: PGE2 treated versus untreated mice
Description: as §2

[9] = test system: py230 BC cells; test: Experimental metastasis model: intravenous PGE2 priming followed by py230 BC cell injection; format: in vivo; conditions: intravenous PGE2 at level equal to post-biopsy blood, versus untreated mice
Description: Wounding triggers a repair cascade by forming a fibrin matrix containing a series of chemo-attractants (e.g., TGF-β, bFGF, PDGF, TNFα, and EGF) that recruit MSCs from bone marrow to the injured site. MSCs produce innumerable growth factors, cyto-chemokines, and metabolites that promote angiogenesis, immunomodulation, and ECM remodeling in order to repair the damaged tissue. […] MSC2 is characterized by a high level of PGE2 release, a potent vasodilater. […] Given the high interstitial pressure coupled with insufficient lymphatic drainage due to superficial lymphatic vessels in solid tumors, soluble factors seep into the circulation from the tumor. Accordingly, PGE2 levels in the blood were 3 times higher in the biopsied mice compared to that in mice bearing unbiopsied tumors or mice without tumor burden (FIG. 6(C)). PGE2 is enzymatically converted from arachidonic acid by the rate-limiting enzyme Cyclooxygenase (COX). COX2 expression is induced by inflammatory stimuli, whereas COX1 is constitutive. […] However, the biologic mechanism by which circulating PGE2 promotes metastasis has heretofore remained unknown.
PGE2-induced hyper-permeation sites indicated by leakage of 40 kDa FITC-dextran (green) coincided with accumulation of SSEA4^+ MSCs (red), a key component of the PMN^51 (FIG. 9(C)).

[10] = test system: pulmonary vessels; test: Pulmonary vessel permeability (Evans Blue leakage) after intravenous PGE2; format: in vivo, mice; conditions: intravenous injection, versus saline
[11] = test system: human microvessel endothelial cells (HMVECs); test: PGE2 induction of VCAM1 mRNA in HMVECs; format: cell-based; conditions: PGE2 level equivalent to post-biopsy blood
Description: as §2

[12] = test system: HMVECs; test: Shear resistant adhesion of human MSCs to HMVECs; format: cell-based; conditions: PGE2 treated HMVECs versus untreated
Description: as §2

[13] = test system: murine endothelial cell line (End.3); test: PGE2 induction of VCAM1 mRNA in End.3; format: cell-based; conditions: End.3, PGE2 level equivalent to post-biopsy blood
Description: as §2

[14] = test system: bone marrow-derived primary Mϕ; test: Quantitative PCR of M2/M1 marker mRNAs in bone marrow-derived primary Mϕ incubated with PGE2; format: cell-based; conditions: 10 μM PGE2
Description: as §1

COc1ccc2cc(OCC3(C(=O)O)CN(C(=O)c4ccc(F)cc4)C3)ccc2c1 [PF-04418948]
biopsy-induced lung metastasis [1]: significantly reduced | PGE2-mediated arginase expression [2]: abrogated | PGE2-induced VCAM1 expression [3]: no effect

CC(C)Cc1ccc(C(C)C(=O)O)cc1 (stereo not drawn) [ibuprofen]
onset of metastasis ([4]; biopsied 4T1-Luc mice, daily oral 50 mg/kg for 9 days): delayed onset | metastasis incidence ([4]; biopsied 4T1-Luc mice, daily oral 50 mg/kg for 9 days, monitored 3 months, biopsied without drug 6/10): 2/10 | cellularity and COX2 expression in the biopsy wound ([4]; histopathology of mastectomized tumors, versus untreated biopsied): far less | effect on metastasis in mice that did not receive biopsy ([4]; unbiopsied 4T1-Luc mice, daily oral 50 mg/kg): no significant effect | PEG2 level in biopsied mouse tumors [5]: significantly reduced | biopsy-WF induced PGE2 release [6]: equally abrogated

Cc1cc(Cl)ccc1S(=O)(=O)NC[C@H]1C2CCC(CC2)[C@@H]1/C=C\CCCC(=O)O [0N08711]
PGE2-mediated arginase expression [2]: no inhibitory effect | PGE2-induced VCAM1 expression [3]: no effect

COc1ccc(Br)cc1S(=O)(=O)NC(=O)/C=C/c1ccccc1Cc1ccc2ccccc2c1 [L-798106]
PGE2-mediated arginase expression [2]: no inhibitory effect

CCCCC[C@H](O)/C=C/[C@H]1[C@H](O)CC(=O)[C@@H]1C/C=C\CCCC(=O)O [PGE2, prostaglandin E2]
infiltration of GFP+ MSCs [7]: preferential infiltration to perivascular space | VCAM1 vascular expression [8]: elevated | pulmonary metastasis of py230 BC cells [9]: enhanced pulmonary metastasis | vessel permeability (Evans Blue leakage into the lungs) [10]: increased vessel permeability | VCAM1 mRNA expression [11]: induce | shear resistant adhesion of human MSCs [12]: 2 fold | VCAM1 mRNA expression [13]: induce | M1 marker mRNAs (iNOS and TNFα) [14]: decrease | M2 marker mRNA expression (arginase, YM1, YM2) [14]: increase

COc1ccc2c(c1)c(CC(=O)O)c(C)n2C(=O)c1ccc(Cl)cc1 [indomethacin]
biopsy-WF induced PGE2 release [6]: equally abrogated

CCCCc1nn(-c2ccccc2C(F)(F)F)c(=O)n1Cc1ccc(-c2ccccc2S(=O)(=O)NC(=O)c2sccc2C)cc1 [L-161982]
PGE2-mediated arginase expression [2]: no inhibitory effect | PGE2-induced VCAM1 expression [3]: blocked
